# Legend:
# [1] = tested on: M17 human neuroblastoma cells; test: Cytotoxicity, M17 human neuroblastoma cells; assay type: cell-based; details: for Cytotox (% viable) M17 cells at 1 μM: 1 μM test compound; for Cytotox (% viable) M17 cells at 10 μM: 10 μM test compound
# Experimental: Assay 3. MTS Assay for Cell Viability
# Cell viability is determined using the MTS assay. Culture medium is replaced with fresh neurobasal medium plus B27 supplements minus antioxidants. 1/10th volume MTS solution (Cell Titre 96 Aqueous One, Promega Corporation) and incubated at 37° C., 2 hrs. 200 microliter aliquots are measured with a spectrophotometer at 560 nm.
# [2] = Mice plasma concentration after oral dose; assay type: in vivo; details: 30 min to 4 h after single or repeat oral dose of 30 mg/kg
# Aβ 1-42 = target: T1, Aβ 1-42 (Homo sapiens, UniProt P05067); test: Fluorometric H2O2 assay (inhibition of Abeta H2O2 production); assay type: biochemical; details: concentration required to inhibit 50% of Abeta H2O2 production; read-out: H2O2 IC50
# T1 construct: The reaction solutions contained Aβ 1-42 at concentrations
# Summary of the method: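 Reactions in PBS pH 7.4 at 37 C for 60 min, containing Aβ, copper and test compound. H2O2 output read as fluorescence of HRP-coupled deacetylated DCF. Fluorescence converted to H2O2 concentration via H2O2 standards.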
# [3] = tested on: dityrosine oligomerization; test: CuTy: inhibition of dityrosine oligomerization; assay type: biochemical; details: referenced to in-house standard (set as 100% inhibition)
# [4] = Toxicity, visual observations in mice; details: 30 mg/kg; duration and visual observations
# [5] = tested on: primary cortical neuronal cultured cells; test: Test compound cytotoxicity, MTS assay, primary cortical neuronal cultures; assay type: cell-based, mouse; details: for Cytotox (% viable) Neuronal cells at 1 μM: 1 μM test compound; for Cytotox (% viable) Neuronal cells at 10 μM: 10 μM test compound
# Summary of the method: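 Primary cortical neurons were cultured five days in Neurobasal/B27, then exposed on day six to compounds (from 2.5 mM DMSO stocks) in medium minus antioxidants, in triplicate for 4 days at 37° C. Viability was measured by MTS, 2 h at 37° C, absorbance at 560 nm.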
# [6] = target: T2, Abeta:Zn (25:50 μM) Synthetic Aggregations (Homo sapiens, UniProt P05067); test: Disaggregation of Abeta:Zn synthetic aggregates (ThT fluorescence); assay type: biochemical; details: for Disaggregation % Aggregate reduction at 5 μM: 5 μM test compound; for EC50: Abeta:Zn 25:50 μM aggregates
# T2 construct: PB Compound Mediated Dissolution of Aggregated Abeta 1-42; purchased Keck Laboratory, Yale University School of Medicine
# Summary of the method: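 ThT signal (excitation 450 nm, emission 480 nm) measured after compounds at final 1, 5, 10, 25 and 50 μM acted 2 h at 37 degrees on preformed aggregates. Those aggregates came from 24 h rotating incubation of 25 μM Abeta1-42, 50 μM ZnCl2 and 50 μM ThT in PBS pH 6.6.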
# T2 sequence (P05067 672-713 limits assumed): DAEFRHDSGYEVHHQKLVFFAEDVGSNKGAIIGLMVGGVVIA
# T1 sequence (P05067 672-713 limits assumed): as above
smiles,measurement,setting,value
Cn1ccnc1Cn1cnc2c(O)c(Cl)cc(Cl)c2c1=O [PB 1243],Cytotox (% viable) M17 cells at 1 μM,[1],112%
same,Cytotox (% viable) M17 cells at 10 μM,[1],122.3%
same,Mice plasma concentration,[2],Up to 13214.8 ng/mL
same,IC50,Aβ 1-42,380 nM
same,CuTy % inhibition of dityrosine oligomerization,[3],CuTy: 60% inhibition
same,Toxicity at 30 mg/kg,[4],"10 days, none"
Cn1nccc1-n1cnc2c(O)c(Cl)cc(Cl)c2c1=O [PB 1262],Cytotox (% viable) M17 cells at 1 μM,[1],106.5%
same,Cytotox (% viable) M17 cells at 10 μM,[1],94.2%
same,Mice plasma concentration,[2],Up to 7107 ng/ mL ng/mL
same,IC50,Aβ 1-42,940 nM
same,Cytotox (% viable) Neuronal cells at 1 μM,[5],104.6%
same,Cytotox (% viable) Neuronal cells at 10 μM,[5],83.7%
same,CuTy % inhibition of dityrosine oligomerization,[3],CuTy No effect
same,Toxicity at 30 mg/kg,[4],"10 days, none (16/11/05)"
O=c1c2c(Cl)cc(Cl)c(O)c2ncn1Cc1cn2ccccc2n1 [PB 1239],Cytotox (% viable) M17 cells at 1 μM,[1],109.2%
same,Cytotox (% viable) M17 cells at 10 μM,[1],98.2%
same,Mice plasma concentration,[2],Up to 98.3 ng/ mL ng/mL
same,IC50,Aβ 1-42,480 nM
same,CuTy % inhibition of dityrosine oligomerization,[3],CuTy: 50% inhibition
same,Toxicity at 30 mg/kg,[4],"10 days, none"
O=c1c2c(Cl)cc(Cl)c(O)c2ncn1-c1ccccn1 [PB 1242],Cytotox (% viable) M17 cells at 1 μM,[1],102.7%
same,Cytotox (% viable) M17 cells at 10 μM,[1],102.6%
same,Mice plasma concentration,[2],Up to 144.2 ng/ mL ng/mL
same,IC50,Aβ 1-42,280 nM
same,CuTy % inhibition of dityrosine oligomerization,[3],CuTy: 50% inhibition
same,Toxicity at 30 mg/kg,[4],"10 days, none"
CN(C)Cc1nc2c(O)c(Cl)cc(Cl)c2c(=O)n1CC1CC1.Cl [PB 1267],Cytotox (% viable) M17 cells at 1 μM,[1],94.4%
same,Cytotox (% viable) M17 cells at 10 μM,[1],74.5%
same,Mice plasma concentration,[2],Up to 1166.6 ng/ml ng/mL
same,IC50,Aβ 1-42,370 nM
same,CuTy % inhibition of dityrosine oligomerization,[3],CuTy: 110% inhibition
same,Toxicity at 30 mg/kg,[4],"10 days, none"
O=c1c2c(Cl)cc(Cl)c(O)c2ncn1Cc1nc2ccccc2s1 [PB 1257],Cytotox (% viable) M17 cells at 1 μM,[1],111.1%
same,Cytotox (% viable) M17 cells at 10 μM,[1],80.9%
same,Mice plasma concentration,[2],Up to 166.1 ng/ mL ng/mL
same,IC50,Aβ 1-42,690 nM
same,CuTy % inhibition of dityrosine oligomerization,[3],CuTy: 60% inhibition
same,Toxicity at 30 mg/kg,[4],"10 days, none"
O=C(O)CCCn1cnc2c(O)c(Cl)cc(Cl)c2c1=O [PB 1255],Cytotox (% viable) M17 cells at 1 μM,[1],109.7%
same,Cytotox (% viable) M17 cells at 10 μM,[1],102.9%
same,Mice plasma concentration,[2],Up to 17008 ng/ mL ng/mL
same,IC50,Aβ 1-42,930 nM
same,Cytotox (% viable) Neuronal cells at 1 μM,[5],97.9%
same,Cytotox (% viable) Neuronal cells at 10 μM,[5],98.0%
same,CuTy % inhibition of dityrosine oligomerization,[3],CuTy: 125% inhibition
same,Toxicity at 30 mg/kg,[4],"10 days, none"
O=c1c2c(Cl)cc(Cl)c(O)c2ncn1Cc1ccncc1 [PB 1241],Cytotox (% viable) M17 cells at 1 μM,[1],105.4%
same,Cytotox (% viable) M17 cells at 10 μM,[1],90.4%
same,Mice plasma concentration,[2],Up to 2181.1 ng/mL
same,IC50,Aβ 1-42,440 nM
same,Cytotox (% viable) Neuronal cells at 1 μM,[5],98.4%
same,Cytotox (% viable) Neuronal cells at 10 μM,[5],90.9%
same,CuTy % inhibition of dityrosine oligomerization,[3],CuTy: 80% inhibition
same,Toxicity at 30 mg/kg,[4],"10 days, none"
CC(C)c1cnc2c(O)cccn2c1=O [PB 1135],Cytotox (% viable) M17 cells at 1 μM,[1],99.7%
same,Cytotox (% viable) M17 cells at 10 μM,[1],45.6%
same,Disaggregation % Aggregate reduction at 5 μM,[6],31%
same,EC50,[6],> 20000 nM
same,Mice plasma concentration,[2],Up to 409 ng/ml ng/mL
same,IC50,Aβ 1-42,270 nM
same,CuTy % inhibition of dityrosine oligomerization,[3],CuTy: 90% inhibition
same,Toxicity at 30 mg/kg,[4],"10 days, none"
O=c1c2c(Cl)cc(Cl)c(O)c2ncn1C1=CCC=C1 [PB 1244],Cytotox (% viable) M17 cells at 1 μM,[1],125.7%
same,Cytotox (% viable) M17 cells at 10 μM,[1],114.8%
same,Mice plasma concentration,[2],Up to 1477.4 ng/mL
same,IC50,Aβ 1-42,1320 nM
same,CuTy % inhibition of dityrosine oligomerization,[3],CuTy: 10% inhibition
same,Toxicity at 30 mg/kg,[4],"10 days, none"
CCn1c(CN(C)C)nc2c(O)c(Cl)cc(Cl)c2c1=O.Cl [PB 1268],Cytotox (% viable) M17 cells at 1 μM,[1],99.2%
same,Cytotox (% viable) M17 cells at 10 μM,[1],102.1%
same,Mice plasma concentration,[2],Up to 975.9 ng/ml ng/mL
same,IC50,Aβ 1-42,360 nM
same,CuTy % inhibition of dityrosine oligomerization,[3],CuTy: 110% inhibition
same,Toxicity at 30 mg/kg,[4],"10 days, none"
O=c1c2c(Cl)cc(Cl)c(O)c2ncn1CCNCc1ccncc1 [PB 1264],Cytotox (% viable) M17 cells at 1 μM,[1],103%
same,Cytotox (% viable) M17 cells at 10 μM,[1],104.8%
same,Mice plasma concentration,[2],Up to 1639.8 ng/mL
same,IC50,Aβ 1-42,450 nM
same,CuTy % inhibition of dityrosine oligomerization,[3],CuTy: 100% inhibition
same,Toxicity at 30 mg/kg,[4],"10 days, none"
O=c1c2c(Cl)cc(Cl)c(O)c2ncn1Cc1cccnc1 [PB 1240],Cytotox (% viable) M17 cells at 1 μM,[1],106.4%
same,Cytotox (% viable) M17 cells at 10 μM,[1],100.2%
same,Mice plasma concentration,[2],Up to 4023.4 ng/mL
same,IC50,Aβ 1-42,320 nM
same,CuTy % inhibition of dityrosine oligomerization,[3],CuTy: 60% inhibition
same,Toxicity at 30 mg/kg,[4],"10 days, none"
CCC(C)n1cnc2c(O)c(Cl)cc(Cl)c2c1=O (centres unmarked) [PB 1112],Cytotox (% viable) M17 cells at 1 μM,[1],99.2%
same,Cytotox (% viable) M17 cells at 10 μM,[1],68.6%
same,Disaggregation % Aggregate reduction at 5 μM,[6],46.4%
same,EC50,[6],> 20000 nM
same,Mice plasma concentration,[2],Up to 2949 ng/ mL ng/mL
same,Cytotox (% viable) Neuronal cells at 1 μM,[5],94%
same,Cytotox (% viable) Neuronal cells at 10 μM,[5],67%
same,CuTy % inhibition of dityrosine oligomerization,[3],CuTy: 125% inhibition
same,Toxicity at 30 mg/kg,[4],"10 days, none"
Br.CN(C)Cc1nc2c(O)c(Cl)cc(Cl)c2c(=O)n1C [PB 1269],Cytotox (% viable) M17 cells at 1 μM,[1],109.3%
same,Cytotox (% viable) M17 cells at 10 μM,[1],114.7%
same,Mice plasma concentration,[2],Up to 492.1 ng/ml ng/mL
same,IC50,Aβ 1-42,280 nM
same,CuTy % inhibition of dityrosine oligomerization,[3],CuTy: 110% inhibition
same,Toxicity at 30 mg/kg,[4],"10 days, 1/4 mild signs"
O=c1c2c(Cl)cc(Cl)c(O)c2ncn1Cc1nccs1 [PB 1254],Cytotox (% viable) M17 cells at 1 μM,[1],106.6%
same,Cytotox (% viable) M17 cells at 10 μM,[1],106%
same,Mice plasma concentration,[2],Up tp 441.4 ng/ mL ng/mL
same,IC50,Aβ 1-42,250 nM
same,CuTy % inhibition of dityrosine oligomerization,[3],CuTy: 90% inhibition
same,Toxicity at 30 mg/kg,[4],"10 days, none"
O=C(O)Cn1cnc2c(O)c(Cl)cc(Cl)c2c1=O [PB 1249],Cytotox (% viable) M17 cells at 1 μM,[1],105%
same,Cytotox (% viable) M17 cells at 10 μM,[1],100.7%
same,Mice plasma concentration,[2],Up to 4830.2 ng/ml ng/mL
same,IC50,Aβ 1-42,490 nM
same,CuTy % inhibition of dityrosine oligomerization,[3],CuTy: 100% inhibition
same,Toxicity at 30 mg/kg,[4],"10 days, none"
Br.CN1CCCC1Cn1cnc2c(O)c(Cl)cc(Cl)c2c1=O (centres unmarked) [PB 1253],Cytotox (% viable) M17 cells at 1 μM,[1],106.6%
same,Cytotox (% viable) M17 cells at 10 μM,[1],93.9%
same,Mice plasma concentration,[2],Up to 382.5 ng/ mL ng/mL
same,IC50,Aβ 1-42,430 nM
same,CuTy % inhibition of dityrosine oligomerization,[3],CuTy: 70% inhibition
same,Toxicity at 30 mg/kg,[4],"10 days, none"
O=c1c2c(Cl)cc(Cl)c(O)c2ncn1-c1ccc2[nH]ncc2c1 [PB 1246],Cytotox (% viable) M17 cells at 1 μM,[1],104.3%
same,Cytotox (% viable) M17 cells at 10 μM,[1],73.5%
same,Mice plasma concentration,[2],Up to 126 ng/ mL ng/mL
same,IC50,Aβ 1-42,310 nM
same,CuTy % inhibition of dityrosine oligomerization,[3],CuTy: 120% inhibition
same,Toxicity at 30 mg/kg,[4],"10 days, none"
